TGI and GI50 data for eight molecules are collected here from PubChem BioAssay (NCI).

“And” between values parts separate entries of the source, which are not always exact repeats. Equal entries are not always repeated.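 Exposure lasted 48 hours, with cells grown in 96-well plates and compounds tested at five concentrations. GI50 marks 50% less growth. TGI is the concentration that stops growth completely.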

Common to all, as to test: NCI-60 cell line screen, 48 h
Assay [1] deals with 786-0 renal.
Assay [2] has as its system A498 renal.
The subject of assay [3] is EKVX NSCLC.
In assay [4] the test system is IGROV1 ovarian.
Assay [5] concerns NCI-H460 lung.
In assay [6] the test system is NCI-H522 lung.
The subject of assay [7] is SF-539 CNS.
Assay [8] concerns SK-MEL-5 melanoma.
The subject of assay [9] is SNB-75 CNS.
The subject of assay [10] is U251 CNS.

With `CCNC(=O)O/N=C1\CCC2[C@@H]3CC=C4C[C@@H](OC(=O)NCC)CC[C@]4(C)C3CC[C@]12C` (stereo partly specified), the TGI is 12.8 µM in assay [1]; greater than 100 µM in assay [2]; 4.84 µM in [3]; greater than 100 µM in assay [4]; 10 µM in assay [5]; 10.6 µM in assay [6]. The TGI in assay [7] was greater than 100 µM; in assay [8], 10.4 µM; in [9], 7.35 µM; in [10] it was 9.6 µM.

With `O=C(NOCCO)c1ccc2cncn2c1Nc1ccc(I)cc1F`, the GI50 in assay [1] is > 10 µM and 27.1 µM; in assay [2], 0.00606 µM and < 0.01 µM; in assay [3], 0.0629 µM; in assay [4], 0.013 µM and 0.0532 µM; in assay [5] it was > 10 µM and 21.9 µM; in [6], > 3.69 µM and 16.9 µM. The GI50 in assay [7] is > 10 µM and 12.4 µM; in assay [8], 3.94 µM; in assay [9], > 8.85 µM and 14.3 µM; in assay [10], 0.722 µM. Besides, the TGI is greater than 100 µM in assay [1]; 0.0542 µM and 0.043 µM in assay [2]; greater than 10 µM in assay [3]; greater than 100 µM in [4]; greater than 100 µM in [5]; greater than 100 µM in assay [6]. In addition, the TGI was greater than 100 µM in [7], greater than 100 µM in assay [8], greater than 100 µM in [9] and greater than 90.1 µM in assay [10].

For `COc1cc(C(=O)/C=C/c2c[nH]c3ccccc23)cc(OC)c1OC`, the GI50 in [1] was less than 0.0223 µM; in [2], less than 0.0119 µM; in assay [3] it was 0.0605 µM; in [4], 0.0713 µM; in assay [5], less than 0.0191 µM; in [6], less than 0.0107 µM. Also, the GI50 in assay [7] was 0.0184 µM; in [8] it was less than 0.0173 µM; in assay [9] it was 0.0264 µM; in assay [10] it was less than 0.0195 µM. The TGI in [1] was greater than 33.9 µM; in assay [2], 0.0414 µM; in assay [3] it was greater than 100 µM; in assay [4], 25.3 µM; in [5] it was 2.17 µM; in assay [6], 0.0391 µM. The TGI in assay [7] stood at 0.0965 µM; in assay [8], 0.775 µM; in [9] it was 37.2 µM; in assay [10] it was 16.1 µM.

`COc1cc(OC)c(/C=C/S(=O)(=O)Cc2ccc(OC)c(N)n2)c(OC)c1`: the GI50 is less than 0.01 µM in assay [1]; less than 0.01 µM in assay [2]; 0.0278 µM in [3]; less than 0.0122 µM in [4]; less than 0.01 µM in [5]; less than 0.01 µM in [6]. Further, the GI50 in assay [7], in assay [8] and in [10] was less than 0.01 µM throughout. Further, the TGI in assay [1] was greater than 100 µM; in assay [3] it was greater than 100 µM; in assay [4], greater than 100 µM; in assay [7] it was less than 0.01 µM; in assay [8], 0.0116 µM; in assay [9], greater than 100 µM. In [10], this molecule returned a TGI greater than 100 µM.

Turning to `NS(=O)(=O)c1cccc(Nc2cc(-c3ccc(F)cc3)[nH]n2)c1`, the GI50 was 23.2 µM in assay [1]; 18.4 µM in assay [2]; greater than 25 µM in assay [3]; 19.3 µM in assay [4]; 13.8 µM in [5]; greater than 25 µM in assay [6]. For the same molecule, the GI50 in assay [7] was 15.1 µM; in assay [8], 24.5 µM; in [9], greater than 15.5 µM; in assay [10], 16.5 µM. For the same molecule, the TGI in assay [1], in assay [2], in assay [3], in assay [4], in [5] and in assay [6] was greater than 25 µM each time. Further, the TGI in assay [7], in [8], in [9] and in [10] was greater than 25 µM in each case.

`CCOC(=O)Nc1cc2c(c(N)n1)N=C(c1ccc(Cl)cc1Cl)CN2`: the TGI in assay [1] is 18.5 µM; in [2] it was 20.6 µM; in [3], 31.9 µM; in assay [4], 34.3 µM; in [5], 6.3 µM; in assay [6], 1.08 µM. In addition, the TGI in assay [7] was 0.0475 µM; in assay [8], 0.999 µM; in assay [9], 36.5 µM; in assay [10], 18 µM.

On to `N#Cc1cnn(C(=O)c2nn(-c3ccc(Cl)cc3)cc2O)c1N`, for which the GI50 in assay [1] is 0.658 µM; in [2], 0.174 µM; in assay [3], 0.378 µM; in assay [4], 0.365 µM; in assay [5], 0.189 µM; in assay [6], 0.173 µM. The GI50 in assay [7] was 0.323 µM; in [8] it was 0.464 µM; in [9], 0.248 µM; in assay [10], 0.284 µM. In addition, the TGI in assay [1] came out at 16.3 µM; in [2], 0.626 µM; in assay [3], 10.4 µM; in assay [4], 12.7 µM; in [5], 0.507 µM; in assay [6], 1.47 µM. Besides, the TGI in assay [7] was found to be 7.85 µM; in assay [8], 2.51 µM; in assay [9], 17.8 µM; in assay [10] it was 20.6 µM.

As to `C=C(CN1CCN(c2cc(C(F)(F)F)cc(C(F)(F)F)c2)CC1)c1ccc(C(=O)Nc2ccccc2N)cc1`, the GI50 in [1] is 6.77 µM; in assay [2] it was 2.04 µM; in assay [3] it was 11.7 µM; in assay [4], 4.2 µM; in assay [5], 4.09 µM; in assay [6] it was 5.21 µM. Also, the GI50 was 18 µM in assay [7], 2.28 µM in assay [8], 3.44 µM in [9] and 10.1 µM in assay [10]. For the same molecule, the TGI in [1] was 86.5 µM; in assay [2], 14.4 µM; in assay [3], 58.6 µM; in [4], 27.3 µM; in assay [5], greater than 100 µM; in assay [6], greater than 100 µM. Also, the TGI in [7] was greater than 100 µM; in assay [8], 10.8 µM; in assay [9], 18.5 µM; in [10], greater than 100 µM.
